Measurements: patent US9345789B2, “Specific inhibitors and active site probes for legumain” (The Board of Trustees of the Leland Stanford Junior …, priority 2009, dated 2016)
Several values for one entry are separate records, joined by “and”; a condition that tells them apart may be missing. Identical values can stand only once. Like-named read-outs stand apart in the source and are kept apart here. Values belong to the molecule of their own block, whether it stands above or below them.

Key:
legumain [1] = molecular target: T1, legumain (Mus musculus (Mouse), UniProt O89017); assay: Labeling of active legumain in intact NIH-3T3 fibroblasts (SDS-PAGE, Cy5 scan); format: cell-based
From the text: (§1) We treated intact NIH-3T3 and RAW 264.7 cells with LP-1 and LP-O respectively and monitored protein labeling using SDS-PAGE followed by scanning of the gel to detect the Cy5 fluorescence (FIG. 2). […] The identity of these off targets as cathepsins was confirmed by pre-treatment of cells with the broad-spectrum cathepsin inhibitor JPM-OEt (21) and further verified by immunoprecipitation (FIG. 16). Although some degree of cross reactivity of AOMK probes towards cathepsins has been reported (15), attempts to inhibit cathepsins with various aza-epoxide inhibitors have been unsuccessful (22). Therefore, the labeling of cathepsins by LP-I was particularly surprising. […] Furthermore, when cells were pre-treated with legumain inhibitors we observed more intense cathepsin labeling. This could be explained by the fact that cathepsins are known to be substrates for legumain (3, 23), thus legumain inhibition could result in increased levels of cathepsins and therefore increased non-specific labeling by the legumain probes.
(§2) RAW 264.7 cells (250,000 cells/well) and NIH-3T3 cells (200,000 cells/well) were seeded in a 24 well plate 24-30 hrs prior to labeling. Cells were pre-treated with appropriate inhibitors for 1.5 hrs and labeled by addition of each probe for 1 hrs; the final DMSO concentration was maintained less than 0.2%. Cells were washed with PBS buffer and lysed by addition of sample buffer. Crude lysates were collected and separated by 12.5% SDS-PAGE. Labeled proteins were analyzed by scanning the gel with a Typhoon flatbed laser scanner (ex. 633 nM/em. 680 nM). For lysates labeling, cytosolic lysates of RAW 264.7 cells were prepared as previously described (29). Lysates were diluted to 1 mg/ml in 50 mM citrate phosphate buffer (pH 4.5), 0.1% CHAPS, 5 mM DTT and subjected to direct labeling. 25˜L of lysates samples were pre-treated with inhibitors for 30 min and labeled with probes for another 30 min. The labeled samples were separated by 12.5% SDS-PAGE and analyzed by scanning the gel with a Typhoon flatbed scanner.
Target sequence in this assay (O89017 18-325): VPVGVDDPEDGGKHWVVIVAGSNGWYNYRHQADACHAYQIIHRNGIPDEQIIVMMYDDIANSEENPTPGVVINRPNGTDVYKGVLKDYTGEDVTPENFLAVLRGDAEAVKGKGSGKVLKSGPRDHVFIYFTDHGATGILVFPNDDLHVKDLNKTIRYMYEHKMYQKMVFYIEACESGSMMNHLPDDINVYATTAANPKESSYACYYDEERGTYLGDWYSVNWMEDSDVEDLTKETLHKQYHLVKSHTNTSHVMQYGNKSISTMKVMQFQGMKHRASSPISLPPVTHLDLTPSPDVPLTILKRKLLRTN

cathepsins [2] = assay: Off-target labeling of cathepsins in intact RAW 264.7 macrophages; format: cell-based; details: for labeling of cathepsins: high concentrations; for cross reactivity towards lysosomal cathepsins: intact RAW 264.7 macrophages
Description: Immunoprecipitation of cathepsins in intact raw 264.7 cells. […] High concentration of LP-1 was used to bring out all the off-target labeling in intact cells.
RAW 264.7 macrophages (600,000 cells/well) were seeded in a 6 well plate 24 hrs prior to labeling. […] High concentration of LP-1 was used to bring out all the off-target labeling in intact cells. Cells were washed with PBS buffer and lysed by addition of citrate-phosphate lysis buffer (50 mM citrate-phosphate, 1% CHAPS, 0.5% Triton, 5 mM DTT, pH 4.5). 20 μL of crude lysates were diluted to […] in RIPA buffer (phosphate-buffered saline, 0.5% NP-40, 1 mM EDTA, pH 7.4). Anti-mouse cathepsin B (E Weber Halle), anti-mouse cathepsin L (R&D Systems), anti-goat cathepsin S (Abchem) and anti-human cathepsin S (R&D Systems) were added and mixed for 15 mM at 0° C. 40 μL of Protein A/G Plus Agarose beads (Santa Cruz Biotechnology) were added and mixed overnight at 4° C. Samples were spun down and supernatant and beads were separated. Beads were washed with RIPA buffer and boiled after addition of sample buffer 2× (20% glycerol, 100 mM Tris HCl, pH 6.8, 6% SDS, and 10% b-mercaptoethanol). Acetone was added to the supernatant and kept at −80° C. for 2 h. Precipitated proteins were collected by centrifugation in the cold for 30 min, dried, and dissolved by boiling in sample buffer. Samples without immunoprecipitation (input), pellets (P) and supernatant (S) were separated on a 12.5% SDS-PAGE and visualized by scanning of the gel with a Typhoon flatbed laser scanner (excitation/emission 633/680 nm).
as §1, with “This could be explained by the fact that cathepsins are known to be substrates for legumain (3, 23), thus legumain inhibition could result in increased levels of cathepsins and therefore increased non-specific labeling by the legumain probes.” left out
RAW 264.7 cells (250,000 cells/well) and NIH-3T3 cells (200,000 cells/well) were seeded in a 24 well plate 24-30 hrs prior to labeling. […] Labeled proteins were analyzed by scanning the gel with a Typhoon flatbed laser scanner (ex. 633 nM/em. 680 nM). […] The labeled samples were separated by 12.5% SDS-PAGE and analyzed by scanning the gel with a Typhoon flatbed scanner.

legumain [3] = molecular target: T1, legumain; assay: Direct labeling of legumain in RAW cell lysates; format: biochemical
Description: as §2
Target sequence in this assay (O89017 18-435): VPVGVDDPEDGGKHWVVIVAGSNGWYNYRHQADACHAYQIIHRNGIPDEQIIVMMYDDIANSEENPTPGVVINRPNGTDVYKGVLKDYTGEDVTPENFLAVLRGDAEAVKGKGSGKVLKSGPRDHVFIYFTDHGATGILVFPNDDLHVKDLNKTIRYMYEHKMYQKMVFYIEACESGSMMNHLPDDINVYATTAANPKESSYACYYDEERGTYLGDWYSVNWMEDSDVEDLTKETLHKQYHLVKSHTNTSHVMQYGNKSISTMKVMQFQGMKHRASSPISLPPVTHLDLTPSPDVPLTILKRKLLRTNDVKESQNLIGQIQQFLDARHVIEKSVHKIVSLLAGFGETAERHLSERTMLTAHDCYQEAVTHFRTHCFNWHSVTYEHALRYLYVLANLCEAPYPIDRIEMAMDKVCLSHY
We believe that this cross-reactivity results from increased lysosomal uptake and is not the result of a loss of specificity as the result of addition of the tat peptide. […] We also performed a competition assay by pre-treating RAW lysates with each probe and labeling with the general cathepsin probe, I^125_DCG04 (25).

cathepsins [4] = assay: Competitive inhibition of cathepsins in RAW cell lysates, labeled by 125I-DCG04; format: biochemical; details: competition with 125I-DCG04
From the text: To test this hypothesis, we labeled RAW cell lysates with LP-1 and tLP-1 (FIG. 9).

legumain [5] = molecular target: T1, legumain; assay: In vivo fluorescence imaging of mice bearing C2C12/ras xenograft tumors; details: IV tail vein, 25 nmol probe
Description: In order to examine in vivo properties of LP-1 and monitor active legumain levels non-invasively, we performed imaging experiments using a simple tumor xenograft model (C2C 1 2/Hras 1)(24). […] Mice were injected with the probes via tail vein and fluorescent images were collected over the course of 5 hrs. […] Furthermore, the specific legumain signal was reduced to background levels after 120 min. This is in contrast to the previously reported cathepsin probes which only provide contrast after 8-12 hours and signals are retained beyond 48 hours.
(§3) In vivo/ex vivo imaging and SDS-PAGE analysis of organ lysates was conducted as follows: Tumor bearing mice were prepared by following the previously described method (24). C2C12/Hras1 or MDA-MB 231 MFP cells ([…]) were injected subcutaneously on 4-8 week old male BALB/c nude mice. 14 days after transplantation, each probe (25 nmol in 100˜L of sterile PBS) was injected via the tail vein into tumor-bearing mice. Mice were imaged at various time points after injection using the IVIS 200 imaging system equipped with a Cy5.5 filter. Relative fluorescence of equal-sized areas of tumor and background were measured using Living Image software (Caliper life science). Upon finishing the last time point of imaging, mice were anesthetized and sacrificed by cervical dislocation. Tumors, livers, kidneys and spleens were collected and imaged ex vivo by using the FMT 2500 with a Cy5 filter. After ex vivo imaging, organs were lysed by a dounce homogenizer in muscle lysis buffer (1% Triton X-100, 0.1% SDS, 0.5% sodium deoxycholate, 0.2% sodium azide in PBS, pH 7.2). Total protein extracts (100˜g each) were separated by SDS-PAGE and visualized by scanning the gel with a Typhoon flatbed laser scanner.
Target sequence in this assay (O89017 18-435): as above

legumain [6] = molecular target: T1, legumain; assay: Ex vivo imaging of organs and SDS-PAGE analysis of organ lysates; format: in vivo, mice
Description: as §3
Target sequence in this assay (O89017 18-435): as above

cathepsin B = cathepsin B (Homo sapiens (Human), UniProt P07858); assay: Inhibition of cathepsin B, fluorogenic substrate Cbz-Phe-Arg-AMC
Description: (§5) Determination of IC50 against cysteine proteases and second order rate constants (kobs1[I]) for legumain Activity of legumain was measured with the fluorogenic substrate, Cbz-Ala-Ala-Asn-AMC (Anaspec), cathepsin B and cathepsin L was measured with Cbz-Phe-Arg-AMC (Bachem), and caspase-3 was measured with Caspase-3 Substrate VII (Calbiochem). […] The increase in fluorescence was continuously monitored every 30 see for 2.5 hrs with a Spectramax M5 fluorescent plate reader (Molecular Devices), and inhibition curves were recorded. […] ICso values with known broad-spectrum cathepsin inhibitor (JPM-OEt) and caspase-3 inhibitor (Z-DEVD-FMK) were also measured for comparison. All measurements were performed in triplicate and the average values were reported.

cathepsin L = cathepsin L (Homo sapiens (Human), UniProt P07711); assay: Inhibition of cathepsin L, fluorogenic substrate Cbz-Phe-Arg-AMC
Description: as §5

recombinant legumain = recombinant legumain (Homo sapiens (Human), UniProt Q99538); assay: Inhibition of recombinant legumain, fluorogenic substrate Cbz-Ala-Ala-Asn-AMC; format: biochemical; details: for IC50: at 60 min
Description: (§4) Assay buffers consist of 20 mM citric acid, 60 mM disodium hydrogen orthophosphate, 1 mM EDTA, 0.1% CHAPS, 4 mM DTT, pH 5.8 for legumain, 50 mM dihydrogen sodium orthophosphate, 1 mM EDTA, 5 mM DTT, pH 6.25 for cathepsin B and cathepsin Land 100 mM Tris, 0.1% CHAPS, 10% sucrose, 10 mM DTT, pH 7.4 for caspase-3.
Second-order inhibition rate constants were determined by following the previously described method in the literature (6). The pseudo-first-order rate constants (kobs) were obtained from plots of In vJ Vo versus time where Vo is the rate of hydrolysis of fluorogenic substrate and Vt is the rate of hydrolysis of substrate in the presence of the inhibitor. The second-order inhibition rate constants were calculated using the following equation. Second order rate constant=(kobs1[I])(1+[S]/Km)

caspase-3 = caspase-3 (Homo sapiens (Human), UniProt P42574); assay: Inhibition of caspase-3, Caspase-3 Substrate VII; details: read-out: Caspase-3 IC50; at 30 min
Description: as §5

[7] = system: caspase 3, cathepsin B or cathepsin L; assay: Selectivity: inhibition of enzymes other than legumain; format: biochemical; details: for inhibitory effect against other enzymes: even at millimolar concentrations
Description: Disclosed below are activity based probes, i.e., they only label active enzyme. The probes are specific for legumain, and may be used to inhibit or inhibit and label active enzyme in situ. […] It may be said, for example, the activity towards legumain will be on the order of at least 3 times greater for legumain than caspase 3, cathepsin B or cathepsin L, preferably at least 10 times greater, and even 100 times greater.
as §4

[8] = read-out: Cathepsin L IC50, at 30 min

recombinant legumain, sequence (Q99538 18-433, species assumed): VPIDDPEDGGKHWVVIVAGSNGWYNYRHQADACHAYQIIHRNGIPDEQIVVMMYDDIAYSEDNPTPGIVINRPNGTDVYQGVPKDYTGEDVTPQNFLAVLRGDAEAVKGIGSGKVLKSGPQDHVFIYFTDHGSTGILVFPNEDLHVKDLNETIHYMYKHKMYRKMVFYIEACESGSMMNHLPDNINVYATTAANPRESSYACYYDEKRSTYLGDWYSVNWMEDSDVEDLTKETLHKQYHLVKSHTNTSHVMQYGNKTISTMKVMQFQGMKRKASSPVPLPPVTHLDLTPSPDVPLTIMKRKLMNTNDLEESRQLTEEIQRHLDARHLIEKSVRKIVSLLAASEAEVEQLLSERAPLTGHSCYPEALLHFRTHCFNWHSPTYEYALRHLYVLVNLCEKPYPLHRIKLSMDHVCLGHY
cathepsin L, sequence (P07711 114-333, species assumed): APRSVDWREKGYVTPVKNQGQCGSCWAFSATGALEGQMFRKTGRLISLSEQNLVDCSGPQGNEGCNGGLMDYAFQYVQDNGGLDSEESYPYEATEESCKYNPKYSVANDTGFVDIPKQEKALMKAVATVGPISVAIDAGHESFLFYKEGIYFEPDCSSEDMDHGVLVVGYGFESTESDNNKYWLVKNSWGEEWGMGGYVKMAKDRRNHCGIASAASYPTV
caspase-3, sequence (P42574 29-175, species assumed): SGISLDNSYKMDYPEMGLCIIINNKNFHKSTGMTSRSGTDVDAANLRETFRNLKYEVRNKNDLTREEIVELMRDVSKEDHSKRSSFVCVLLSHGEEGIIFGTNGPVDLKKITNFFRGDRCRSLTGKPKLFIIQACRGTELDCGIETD
caspase-3, sequence (P42574 176-277, species assumed): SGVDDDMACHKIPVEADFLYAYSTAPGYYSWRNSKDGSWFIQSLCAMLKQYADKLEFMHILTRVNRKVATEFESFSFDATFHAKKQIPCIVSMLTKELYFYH

Structure (SMILES): CCOC(=O)/C=C/C(=O)N(CC(N)=O)NC(=O)[C@@H]1CCCN1C(=O)CCCCCNC(=O)CCCCCN1/C(=C/C=C/C=C/C2=[N+](CC)c3ccc(S(=O)(=O)O)cc3C2(C)C)C(C)(C)c2cc(S(=O)(=O)O)ccc21 [LP-2]
labeling of cathepsins (cathepsins [2]): did not label any cathepsins at high concentrations

Structure (SMILES): CCOC(=O)[C@H]1O[C@@H]1C(=O)N[C@@H](CC(C)C)C(=O)NCCc1ccc(O)cc1 [JPM-OEt, reference compound]
IC50 (cathepsin B): 0.78 µM
IC50 (cathepsin L): 2.98 µM

Structure (SMILES): CC(=O)N1CCC[C@H]1C(=O)N[C@@H](CC(=O)O)C(=O)COC(=O)c1c(C)cccc1C [LI-0, reference compound]
Legumain kobs/[I] (second-order rate constant) (recombinant legumain): 1586 M⁻¹ s⁻¹
IC50 (recombinant legumain): 0.704 µM
Legumain kobs/[I] (second-order rate constant) (recombinant legumain; listed as LI-O): 1585 M⁻¹ s⁻¹
IC50 (caspase-3): 2.8 µM
IC50 (cathepsin B; read-out: Cathepsin B IC50, at 30 min): > 1000 µM
IC50 (cathepsin L; [8]): > 1000 µM

Structure (SMILES): CCOC(=O)[C@@H]1O[C@H]1C(=O)N(CC(N)=O)NC(=O)C1CCCN1C(C)=O (stereo partly drawn) [LI-1]
Legumain kobs/[I] (second-order rate constant) (recombinant legumain): 72350 M⁻¹ s⁻¹ and 72352 M⁻¹ s⁻¹
potency and rate of legumain inhibition, comparison of inhibitors (recombinant legumain; FIG. 18): greater potency and rate than either Li-2 or LI-0
IC50 (recombinant legumain): 0.0115 µM
inhibitory effect against other enzymes [7]: no inhibitory effect
IC50 (caspase-3): 890 µM
IC50 (cathepsin L; [8]): 220 µM

Structure (SMILES): CCOC(=O)/C=C/C(=O)N(CC(N)=O)NC(=O)[C@@H]1CCCN1C(C)=O [LI-2]
selectivity for legumain ([7]; FIG. 18): most selective for legumain
inhibitory effect against other enzymes [7]: no inhibitory effect

Further lines, with some results ahead:

labeling of active legumain (legumain [1]): selectively labeled active legumain
accumulation / selective uptake in tumor (legumain [5]): rapidly accumulated in tumor tissues
time after which specific legumain signal was reduced to background levels (legumain [5]): 120 min
time of maximum tumor signal to background ratio (legumain [5]): around 90 min
Structure (SMILES): CCOC(=O)C1OC1C(=O)N(CC(N)=O)NC(=O)C1CCCN1C(=O)CCCCCNC(=O)CCCCCN1C(=CC=CC=CC2=[N+](CC)c3ccc(S(=O)(=O)O)cc3C2(C)C)C(C)(C)c2cc(S(=O)(=O)O)ccc21 (stereo not drawn) [LP-1]
labeling of active legumain (legumain [1]; listed as LP-I): labeled active legumain more efficiently than LP-0 at low probe concentrations
labeling of cathepsins (cathepsins [2]): labeled cathepsins only at high concentrations or when legumain activity is suppressed
cross reactivity towards lysosomal cathepsins (cathepsins [2]): some degree of cross reactivity towards lysosomal cathepsins
reactivity towards legumain (legumain [3]): no difference in reactivity towards legumain
inhibition of cathepsins (cathepsins [4]): equally poor inhibitors of the cathepsins
legumain labeling in tumors, organ distribution and cathepsin cross reactivity (legumain [6]; ex vivo organs and SDS-PAGE of lysates): the most legumain labeling in tumors as well as the highest levels of legumain-specific fluorescent signal
selectivity of legumain labeling in vivo (legumain [6]; organ extracts, SDS-PAGE): remarkably selective toward legumain in vivo and showed virtually no off-target labeling

labeling of active legumain (legumain [1]): selectively labeled active legumain
Structure (SMILES): CC[N+]1=C(/C=C/C=C/C=C2/N(CCCCCC(=O)NCCCCCC(=O)N3CCC[C@H]3C(=O)N[C@@H](CC(=O)O)C(=O)COC(=O)c3c(C)cccc3C)c3ccc(S(=O)(=O)O)cc3C2(C)C)C(C)(C)c2cc(S(=O)(=O)O)ccc21 [LP-0, reference compound]
cross reactivity towards lysosomal cathepsins (cathepsins [2]): some degree of cross reactivity towards lysosomal cathepsins
